Results: ChEMBL document CHEMBL1909046, “DrugMatrix in vitro pharmacology data”
pIC50, pKi: −log10 of the molar value.

Tests used:
Vasopressin V1a receptor = Vasopressin V1a receptor (Homo sapiens, UniProt P37288); type: cell membranes, Membrane; settings: hek293; also: in other assays of this panel Not Active means under 50% inhibition at 10 µM
[1] = biological target: Platelet-activating factor receptor (Homo sapiens, UniProt P25105); type: tissue-based; also: in other assays of this panel Not Active means under 50% inhibition at 10 µM
Platelet-activating factor receptor, sequence (P25105 whole entry): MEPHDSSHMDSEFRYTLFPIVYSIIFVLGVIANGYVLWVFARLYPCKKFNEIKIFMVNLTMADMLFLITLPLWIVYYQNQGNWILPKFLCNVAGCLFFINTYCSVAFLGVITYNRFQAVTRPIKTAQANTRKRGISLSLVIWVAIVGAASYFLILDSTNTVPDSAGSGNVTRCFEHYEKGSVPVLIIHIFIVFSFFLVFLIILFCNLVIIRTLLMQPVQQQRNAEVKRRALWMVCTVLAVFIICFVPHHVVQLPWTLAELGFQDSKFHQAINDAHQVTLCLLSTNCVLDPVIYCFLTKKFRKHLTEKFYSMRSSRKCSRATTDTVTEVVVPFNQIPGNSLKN

Calcitonin receptor = biological target: T1, Calcitonin receptor (Homo sapiens, UniProt P30988); type: cell membranes, Membrane; settings: t47d; also: in other assays of this panel Not Active means under 50% inhibition at 10 µM
T1 sequence (P30988 whole entry): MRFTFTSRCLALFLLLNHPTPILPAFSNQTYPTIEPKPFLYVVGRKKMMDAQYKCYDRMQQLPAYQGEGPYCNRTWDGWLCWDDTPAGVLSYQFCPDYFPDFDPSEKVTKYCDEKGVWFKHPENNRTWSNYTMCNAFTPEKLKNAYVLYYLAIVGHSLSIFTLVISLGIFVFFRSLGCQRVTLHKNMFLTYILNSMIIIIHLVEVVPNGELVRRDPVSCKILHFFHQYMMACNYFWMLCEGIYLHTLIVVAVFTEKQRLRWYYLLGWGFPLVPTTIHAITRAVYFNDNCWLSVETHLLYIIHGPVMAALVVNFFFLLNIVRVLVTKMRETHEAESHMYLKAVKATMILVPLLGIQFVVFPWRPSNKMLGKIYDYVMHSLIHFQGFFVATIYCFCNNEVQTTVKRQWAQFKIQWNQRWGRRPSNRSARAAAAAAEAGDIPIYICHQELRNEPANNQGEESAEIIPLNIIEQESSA

[2] = DRUGMATRIX: Calcium Channel Type L, Benzothiazepine radioligand binding (ligand: [3H] Diltiazem); type: cell membranes, Rattus norvegicus, Wistar, Brain, Membrane; settings: Not Active = under 50% inhibition at 10 µM
[3] = biological target: T2, C-C chemokine receptor type 4 (Homo sapiens, UniProt P51679); type: cell membranes, Membrane; settings: chem-1; also: in other assays of this panel Not Active means under 50% inhibition at 10 µM
T2 sequence (P51679 whole entry): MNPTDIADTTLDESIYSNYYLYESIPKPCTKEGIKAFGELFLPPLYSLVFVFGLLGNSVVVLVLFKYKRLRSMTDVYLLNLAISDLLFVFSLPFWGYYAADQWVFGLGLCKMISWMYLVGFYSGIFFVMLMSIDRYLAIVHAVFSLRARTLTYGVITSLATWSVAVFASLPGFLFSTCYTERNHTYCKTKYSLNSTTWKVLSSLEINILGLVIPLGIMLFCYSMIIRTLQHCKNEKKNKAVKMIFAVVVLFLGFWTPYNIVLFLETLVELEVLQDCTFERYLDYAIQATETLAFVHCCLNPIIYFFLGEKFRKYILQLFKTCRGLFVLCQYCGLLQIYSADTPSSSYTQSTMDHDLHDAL

[4] = DRUGMATRIX: GABAA, Muscimol, Central radioligand binding (ligand: [3H] Muscimol); type: cell membranes, Rattus norvegicus, Wistar, Brain, Membrane; settings: Not Active = under 50% inhibition at 10 µM
[5] = DRUGMATRIX: GABAA, Chloride Channel, TBOB radioligand binding (ligand: [3H] TBOB); type: cell membranes, Rattus norvegicus, Wistar, Cerebral cortex, Membrane; settings: Not Active = under 50% inhibition at 10 µM
[6] = biological target: T3, Muscarinic acetylcholine receptor M2 (Homo sapiens, UniProt P08172); type: cell membranes, CHO-K1, Membrane; also: in other assays of this panel Not Active means under 50% inhibition at 10 µM
T3 sequence (P08172 whole entry): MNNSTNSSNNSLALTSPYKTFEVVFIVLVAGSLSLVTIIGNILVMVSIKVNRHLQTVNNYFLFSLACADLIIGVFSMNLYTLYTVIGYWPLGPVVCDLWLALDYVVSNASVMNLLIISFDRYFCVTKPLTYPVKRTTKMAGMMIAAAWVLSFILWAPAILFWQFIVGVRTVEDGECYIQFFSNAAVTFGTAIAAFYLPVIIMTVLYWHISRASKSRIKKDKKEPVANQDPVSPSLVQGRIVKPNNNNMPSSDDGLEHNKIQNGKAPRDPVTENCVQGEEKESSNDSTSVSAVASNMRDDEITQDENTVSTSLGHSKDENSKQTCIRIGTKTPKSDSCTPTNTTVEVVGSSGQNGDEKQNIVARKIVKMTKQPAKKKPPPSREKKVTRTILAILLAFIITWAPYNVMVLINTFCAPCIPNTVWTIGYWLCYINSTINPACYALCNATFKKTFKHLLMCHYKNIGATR

Vasopressin V1a receptor, sequence (P37288 whole entry): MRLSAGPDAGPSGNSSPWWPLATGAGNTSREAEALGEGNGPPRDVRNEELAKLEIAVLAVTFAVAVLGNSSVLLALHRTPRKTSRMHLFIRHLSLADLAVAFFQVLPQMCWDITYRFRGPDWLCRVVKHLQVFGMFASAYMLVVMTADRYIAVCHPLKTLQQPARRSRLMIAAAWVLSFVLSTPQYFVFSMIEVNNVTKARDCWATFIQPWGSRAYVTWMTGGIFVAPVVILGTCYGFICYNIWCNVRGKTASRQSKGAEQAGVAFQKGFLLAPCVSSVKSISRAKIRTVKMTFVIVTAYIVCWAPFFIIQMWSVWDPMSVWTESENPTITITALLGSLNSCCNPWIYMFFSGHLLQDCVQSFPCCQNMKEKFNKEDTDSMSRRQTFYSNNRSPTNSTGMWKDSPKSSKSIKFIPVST

Compound	IC50 (Vasopressin V1a receptor)	IC50 [1]	IC50 (Calcitonin receptor)	IC50 [2]	Ki [2]	IC50 [3]	IC50 [4]	Ki [4]	IC50 [5]	Ki [5]	IC50 ([6]; cho-k1)	Ki (Vasopressin V1a receptor)	Ki [1]	Ki (Calcitonin receptor)	Ki [3]	Ki ([6]; cho-k1)	pIC50 ([2]; read-out: IC50)	pKi ([2]; read-out: Ki)	pIC50 ([6]; read-out: IC50)	pKi ([6]; read-out: Ki)
CC(c1cc2ccccc2s1)N(O)C(N)=O (centres undefined) [ZILEUTON]	Not Active	Not Active	Not Active	Not Active	Not Active	Not Active	Not Active	Not Active	Not Active	Not Active	Not Active									
O=C1Nc2ccc(Cl)cc2C(c2ccccc2Cl)=NC1O (centres undefined) [LORAZEPAM]	Not Active	Not Active	Not Active	Not Active	Not Active	Not Active	Not Active	Not Active	Not Active	Not Active	Not Active									
CCN(CC)CCOc1ccc(/C(=C(/Cl)c2ccccc2)c2ccccc2)cc1 [ENCLOMIPHENE]	Not Active	Not Active	Not Active			Not Active														
CC(C)Cc1ccc([C@@H](C)C(=O)O)cc1 [(R)-IBUPROPHEN]	Not Active	Not Active	Not Active	Not Active	Not Active	Not Active	Not Active	Not Active	Not Active	Not Active	Not Active									
O=C(Nc1ccc(Br)cc1)c1cc(Br)cc(Br)c1O [TRIBROMSALAN]	Not Active	Not Active	Not Active	Not Active	Not Active	Not Active	Not Active	Not Active	Not Active	Not Active	Not Active									
CN(C/C=C/C#CC(C)(C)C)Cc1cccc2ccccc12 [TERBINAFINE]	Not Active	Not Active	Not Active	Not Active	Not Active	Not Active	Not Active	Not Active	Not Active	Not Active	Not Active									
Cn1c(=O)c2nc[nH]c2n(C)c1=O.O [THEOPHYLLINE]	Not Active	Not Active	Not Active	Not Active	Not Active	Not Active	Not Active	Not Active	Not Active	Not Active	Not Active									
CC(C)NCC(O)c1ccc(NS(C)(=O)=O)cc1 (centres undefined) [SOTALOL]	Not Active	Not Active	Not Active	Not Active	Not Active	Not Active	Not Active	Not Active	Not Active	Not Active	Not Active									
CO[C@@H]1[C@@H](OC)[C@H](C)[C@@](O)(CC(=O)O)O[C@H]1[C@H](C)[C@H]1O[C@@]2(CC[C@@](C)([C@H]3CC[C@@](C)([C@@H]4O[C@@H]([C@H]5O[C@](C)(O)[C@H](C)C[C@@H]5C)C[C@@H]4O[C@@H]4C[C@H](OC)[C@@H](OC)[C@H](C)O4)O3)O2)C[C@H](O)[C@H]1C [MADURAMICIN ACID]	Not Active	Not Active	Not Active	Not Active	Not Active	Not Active	Not Active	Not Active	Not Active	Not Active	Not Active									
SODIUM ORTHOVANAD	Not Active	Not Active	Not Active	Not Active	Not Active	Not Active	Not Active	Not Active	Not Active	Not Active	Not Active	Not Active	Not Active	Not Active	Not Active	Not Active				
Cc1cccc(C)c1OCC(C)N (centres undefined) [MEXILETINE]	Not Active	Not Active	Not Active	Not Active	Not Active	Not Active	Not Active	Not Active	Not Active	Not Active	Not Active									
CC(C)NCC(O)c1ccc(O)c(O)c1 (centres undefined) [ISOPROTERENOL]	Not Active	Not Active	Not Active	Not Active	Not Active	Not Active	Not Active	Not Active	Not Active	Not Active	Not Active									
NC1CCN(c2nc3c(cc2F)c(=O)c(C(=O)O)cn3-c2ccc(F)cc2F)C1 (centres undefined) [TOSUFLOXACIN]	Not Active	Not Active	Not Active	Not Active	Not Active	Not Active	Not Active	Not Active	Not Active	Not Active	Not Active									
COc1ccc(CCN(C)CCCC(C#N)(c2ccc(OC)c(OC)c2)C(C)C)cc1OC (centres undefined)	Not Active	Not Active	Not Active			Not Active	Not Active	Not Active	Not Active	Not Active	Not Active						7.85	7.92		
CN[C@H]1CC[C@@H](c2ccc(Cl)c(Cl)c2)c2ccccc21 [SERTRALINE]	Not Active	Not Active	Not Active			Not Active													5.56	6.01
O=C(Oc1ccccc1C(=O)O)c1ccccc1O [SALSALATE]	Not Active	Not Active	Not Active	Not Active	Not Active	Not Active	Not Active	Not Active	Not Active	Not Active	Not Active									
NC(=O)N1C(=O)/C(=C(\O)c2cccs2)c2cc(Cl)ccc21 [TENIDAP]	Not Active	Not Active	Not Active	Not Active	Not Active	Not Active	Not Active	Not Active	Not Active	Not Active	Not Active									
O=C1C(CC[S+]([O-])c2ccccc2)C(=O)N(c2ccccc2)N1c1ccccc1 (centres undefined) [SULFINPYRAZONE]	Not Active	Not Active	Not Active	Not Active	Not Active	Not Active	Not Active	Not Active	Not Active	Not Active	Not Active									
Fc1ccc(C(c2ccc(F)cc2)N2CCN(C/C=C/c3ccccc3)CC2)cc1 [FLUNARIZINE]	Not Active	Not Active	Not Active			Not Active					Not Active									
CN(C)CCOC(c1ccccc1)c1ccccc1 [DIPHENHYDRAMINE]	Not Active	Not Active	Not Active			Not Active														
CNCCC(Oc1ccc(C(F)(F)F)cc1)c1ccccc1 (centres undefined) [FLUOXETINE]	Not Active	Not Active	Not Active			Not Active					Not Active									
Cc1ccc(NC(=O)c2ccc(CN3CCN(C)CC3)cc2)cc1Nc1nccc(-c2cccnc2)n1 [IMATINIB]	Not Active	Not Active	Not Active			Not Active					Not Active									
Clc1ccc(COC(Cn2ccnc2)c2ccc(Cl)cc2Cl)cc1 (centres undefined) [ECONAZOLE]	Not Active	Not Active	Not Active			Not Active														
